Laboratory results taken from patent US20060165641A1, “Cosmetic compositions containing combinations of hydroxamate derivatives and antioxidants in a liposomal delivery system” (priority 2005, published 2006).
pIC50: −log10 of the molar value. “And” between values parts separate entries of the source, which are not always exact repeats. Equal values may be shown once. “Also recorded” adds a separate entry of the source. Read-outs that look alike come from different tables or passages of the source.

Experiments:
[1] = tested on: AP-1 transcription factor; conditions: keratinocyte cell line HaCaT; very low levels; cited from earlier work
MMP 13 [2] = conditions: primary human chondrocytes; cited from earlier work
[3] = tested on: normal human keratinocytes; test: UVB-induced TNF-α production by keratinocytes (ELISA, normalized to MTT viability); conditions: UVB 35 mJ/cm2, 24 hrs; low concentrations of NDGA
[4] = UV-induced lipid peroxidation of lecithin liposomes (malonaldehyde); conditions: relative to EGCG taken as 100%
Procedure: The ability of NDGA to prevent UV-induced lipid peroxidation was measured in comparison to other antioxidant industry standards such as vitamin E, vitamin C and green tea polyphenols. The assay was performed by irradiating a suspension of lecithin liposomes with UV light for 4 hours, in the absence or in the presence of the different compounds. Malonaldehyde levels (a breakdown product of oxidized lipids) were measured in aliquots of the reaction mixture at different times. The rate of lipid oxidation was calculated from the increase in malonaldehyde content. Relative potency was calculated by taking epigallocatechin gallate (EGCG) as 100%. The antioxidant used in the comparisons are listed in the left column. The middle column lists the effective concentration at which the compound is 50% effective (EC 50) for inhibition of lipid peroxidation, while the right column lists the relative potency of the samples, as compared to polyphenol of tea, which is taken as 100.

MMP 13 [5] = conditions: human chondrosarcoma cell line SW1353; cited from earlier work
[6] = Singlet oxygen scavenging test (Rose Bengal / iodide); conditions: % inhibition of control; compared with Coenzyme Q10 and green tea polyphenols
Procedure: Singlet forms of molecular oxygen are excited electronic configurations that are more reactive than the spin-restricted ground state. These forms can be generated in tissues by a variety of mechanisms. Particularly relevant to the skin is light-induced production of singlet oxygen. The singlet oxygen scavenging test is performed by irradiation of a reaction mixture that contains a photosensitizer dye (Rose Bengal) and iodide ions. The excited dye transfers its energy to ground state oxygen to generate singlet oxygen which in turn oxidizes iodide to I3^−. Production of I3^− is followed spectrophotometrically at 355 nm. If a test sample is a singlet oxygen quencher, it will decrease the rate of I3^− production.

[7] = Hydroxyl radical scavenging (Fenton reaction, terephthalic acid); conditions: compared with green tea polyphenols, glutathione, vitamin E
Procedure: Hydroxyl radical scavenging of NDGA was measured by generation of .OH via the Fenton reaction with terephthalic acid as oxidizable substrate. Hydroxylation of terephthalic acid results in production of a fluorescent product. The rate of the reaction is determined by measuring the time course of fluorescence increase. If a test sample is a hydroxyl radical scavenger, it will decrease the reaction rate.
FIG. 6 is a table displaying hydroxyl radical scavenging activity of NDGA in comparison with green tea polyphenols (GTP) and Vitamin E, indicated in the left column.

[8] = molecular target: MMP-9 (also known as gelatinase) (Homo sapiens, UniProt P14780); test: MMP inhibition, fluorogenic peptide assay; conditions: for MMP-9 inhibitory activity (in words): fluorogenic peptide assay
MMP-9 (also known as gelatinase), sequence (P14780 94-707, species assumed): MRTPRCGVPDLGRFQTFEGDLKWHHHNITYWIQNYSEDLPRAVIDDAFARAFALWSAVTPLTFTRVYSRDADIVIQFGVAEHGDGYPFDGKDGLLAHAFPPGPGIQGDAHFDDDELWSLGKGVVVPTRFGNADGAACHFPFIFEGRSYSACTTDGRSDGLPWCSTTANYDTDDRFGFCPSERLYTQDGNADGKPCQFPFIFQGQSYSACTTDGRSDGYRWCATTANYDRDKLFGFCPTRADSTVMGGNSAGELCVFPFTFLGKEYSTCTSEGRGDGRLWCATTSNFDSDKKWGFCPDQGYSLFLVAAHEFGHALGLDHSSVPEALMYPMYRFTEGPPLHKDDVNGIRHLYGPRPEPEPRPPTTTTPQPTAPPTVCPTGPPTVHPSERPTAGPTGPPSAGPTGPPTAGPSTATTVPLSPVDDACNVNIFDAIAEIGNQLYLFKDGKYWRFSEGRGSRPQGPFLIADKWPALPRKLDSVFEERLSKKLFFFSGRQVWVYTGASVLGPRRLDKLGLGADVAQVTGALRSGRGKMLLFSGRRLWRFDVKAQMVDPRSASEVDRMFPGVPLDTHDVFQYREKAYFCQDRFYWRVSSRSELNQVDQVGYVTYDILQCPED
Procedure: In this system, the substrate is a fluorogenic peptide which, when cleaved by the MMP, undergoes an increase in fluorescence. The reaction is followed by monitoring the increase in the fluorescence of the reaction mixture for 2 hours. The rate of fluorescence increase is a measure of the reaction rate. The assay is performed in microtiter plates using triplicate wells per condition. The test sample contains specific MMP and the putative MMP inhibitor at several concentrations and the mean rate of the reaction at each of these conditions is compared to the reaction rate in the absence of inhibitor. The concentration of the test sample that inhibits the reaction rate (i.e., MMP inhibition) by 50% is defined as the “50% Inhibitory Concentration” or IC50.

keratinocytes = test: Integrin expression of keratinocytes (ELISA); type: cell-based; conditions: 48 hrs
Procedure: (§1) In addition, SHA stimulates collagen and integrin synthesis of keratinocytes and fibroblasts. This was measured by treating keratinocyte or fibroblast cultures with SHA for 48 hrs and testing the medium for collagen and integrin secretion using appropriate antibodies using commercially available ELISA kits. The ELISA measures the secretion of collagen-1 and three different types of integrins, integrin alpha-2, -3 and -5. […] The data, presented in the right column, are expressed as a % stimulation of collagen secretion as compared to the control. […] Stimulation of collagen synthesis would provide more integrity to the dermis and would benefit in reducing wrinkles and will provide anti-aging benefits.
(§2) SHA can also stimulate integrin expression of fibroblasts and keratinocytes. […] In each table, that left column lists the various concentrations of SHA used in the tests, while the three right columns present integrin expression data, for different varieties of integrin, expressed as a % stimulation with respect to the control (0 mM SHA). […] Integrin is a vital component of the cell extracellular matrix that helps in cell adhesion and attachment. The increased amount of integrin helps cells to attach and grow, making skin firmer and more cellular. […]

fibroblasts [9] = test: Integrin expression of fibroblasts (ELISA); type: cell-based; conditions: 48 hrs
Procedure: as §1, §2

[10] = tested on: normal human keratinocytes; test: UVB-induced PGE2 production by keratinocytes (ELISA, normalized to MTT viability); type: cell-based; conditions: UVB 30 mJ/cm2; SHA at as low as 5 uM
Procedure: The anti-inflammatory effect of SHA was measured by pretreating normal human keratinocytes with different concentrations of SHA for 24 hrs. The cells were UVB irradiated with a single sub-lethal dose of 30 mJ/cm2 using a Phillips TL20W12 tube. Cells were further incubated for 24 hrs with SHA and prostaglandin E2 (PGE2) levels in the supernatant media samples were analyzed by ELISA. 20 uM indomethacin was included as a positive control as an anti-inflammatory agent. The cell viability was also tested at the end of the 24 hr incubation period using the MTT metabolism method. […] The data was expressed as PGE2 production normalized to cell viability. PGE2, or prostaglandin E2, is an inflammatory mediator produced during inflammatory reactions in the skin. Any agents that inhibit the production of PGE2 will therefore have a beneficial effect of preventing inflammation (in other words, an anti-inflammatory effect). The top three bars display the effect of SHA at various concentrations on the UVB irradiated cells, the 4th bar the effect of indomethscin, the 5th bar the effect of UVB radiation on untreated cells, while the bottom bar is a control (untreated cells, not UVB irradiated).

[11] = tested on: normal human keratinocytes; test: Cornified envelope formation / differentiation of keratinocytes; type: cell-based; conditions: 0.15 mM calcium medium; relative to high calcium (1 mM) cultures
Procedure: To measure the induction of differentiation of keratinocytes, cultures of normal human keratinocytes were incubated with medium containing 0.15 mM calcium (low calcium prevents CE formation and keeps cells in growth mode). The cells were treated with different amounts of SHA and the amount of the highly cross-linked, detergent insoluble CE formation was quantified after dissolving the cells in 2% SDS/20 mM Dithiothrietol (DTT). The insoluble CE was centrifuged, resuspended in water and the optical density of the turbid solution was measured at 400 nm. The increase in turbidity indicates increased CE formation. […] The results, presented in the right column, are expressed relative to high calcium (1 mM) containing cultures.

fibroblasts [12] = test: Fibroblast collagen-1 secretion (ELISA); type: cell-based; conditions: 0.1 mM SHA, 48 hrs
Procedure: as §1

mushroom tyrosinase = test: Inhibition of mushroom tyrosinase (tyrosine to DOPAchrome, OD475); type: biochemical
Procedure: The skin lightening effect of SHA was determined by measuring the inhibition of tyrosinase since tyrosinase is the enzyme that catalyzes the rate limiting steps in melanin synthesis. Inhibition of mushroom tyrosinase was assayed by measuring conversion of tyrosine to DOPAchrome (OD475) in the presence of varying concentrations of test sample. […] Thirty nanomolar SHA inhibited over 30% of the activity. The IC50 is 60 nM.

For `CC(Cc1ccc(O)c(O)c1)C(C)Cc1ccc(O)c(O)c1` (stereo not drawn) [NDGA, nordihydroguaiaretic acid], the “inhibition of AP-1 activation” value [1] is given as “at very low levels inhibits AP-1 activation”, the “inhibition of TNF-α induced MMP 13 mRNA and protein induction” value (MMP 13 [2]) is given as “inhibits TNF-α induced MMP 13 mRNA and protein induction” and the “TNF alpha production normalized to cell viability” value [3] is given as “effectively blocked UVB-induced inflammation in keratinocytes; also recorded: much more effective than dexamethasone or green tea polyphenols”. The “relative potency, inhibition of lipid peroxidation” value [4] was “twice as potent as the next most effective antioxidant (EGCG); also recorded: two orders of magnitude more potent than the vitamin E varieties”, the “inhibition of TNF-α induced MMP 13 mRNA and protein induction” value (MMP 13 [5]) was “inhibits TNF-α induced MMP 13 mRNA and protein induction” and the “singlet oxygen scavenging activity” value [6] was “very powerful singlet oxygen scavenger, equivalent to green tea polyphenols and better than coenzyme Q10”. For the same compound, the “hydroxyl radical scavenging activity” value [7] was “slightly more effective than green tea polyphenols and far more potent than glutathione or vitamin E”, the pIC50 ([8]; IC50 MMP-9 inhibition, fluorogenic peptide, 2 hours) was ~3.64 and ~4.00 and the “MMP-9 inhibitory activity (in words)” value [8] was “very high MMP-9 inhibitory activity”.

In the case of `O=C(NO)c1ccccc1O` [SHA, Salicylhydroxamate], the “integrin expression (alpha-2, -3, -5) vs control” value (keratinocytes) was “increasing the integrin expression of keratinocytes”, the “integrin expression (alpha-2, -3, -5) vs control” value (fibroblasts [9]) was “increasing the integrin expression of keratinocytes and fibroblasts” and the “PGE2 production normalized to cell viability (anti-inflammatory effect)” value [10] was “potent anti-inflammatory effects”. For the same compound, the “cornified envelope formation (terminal differentiation)” value [11] was “induces terminal differentiation of keratinocytes, increases the formation of CE”, the “stimulation of collagen secretion compared to control” value (fibroblasts [12]) was “significantly stimulated the collagen synthesis of fibroblasts” and the pIC50 (mushroom tyrosinase) was 7.22. For the same compound, the “inhibition of tyrosinase activity” value (mushroom tyrosinase; Thirty nanomolar SHA) was “over 30%” and the “MMP-9 inhibitory activity (in words)” value [8] was “excellent and potent inhibitors of matrix metalloproteases”.

With `NC(Cc1c[nH]c2ccccc12)C(=O)NO` (stereo not drawn) [tryptophan hydroxamate] the “MMP-9 inhibitory activity (in words)” value [8] was “excellent and potent inhibitors of matrix metalloproteases”.
